Test results: PubChem BioAssay (NCI)
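How tested: cells in 96-well plates exposed to compound for 48 hours at five concentrations. TGI denotes the concentration required for complete inhibition of growth.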 Where a SMILES comes first, the peptide text is derived from it. The star is where a group is joined. Boc = CC(C)(C)OC(=O)*; OBn = c1ccc(CO*)cc1; Bn = c1ccc(C*)cc1

Legend:
Experiment in all cases: NCI tumour cell line growth inhibition, 48 h
MALME-3M melanoma = system: MALME-3M melanoma
HOP-62 NSCLC = system: HOP-62 NSCLC
IGROV1 ovarian = system: IGROV1 ovarian
SN12C renal = system: SN12C renal
MOLT-4 leukemia = system: MOLT-4 leukemia
OVCAR-4 ovarian = system: OVCAR-4 ovarian
KM12 colon = system: KM12 colon
SF-295 CNS = system: SF-295 CNS
PC-3 prostate = system: PC-3 prostate
MDA-MB-231 breast = system: MDA-MB-231 breast
HOP-92 NSCLC = system: HOP-92 NSCLC

Structure (SMILES) | TGI (MALME-3M melanoma) [µM] | TGI (HOP-62 NSCLC) [µM] | TGI (IGROV1 ovarian) [µM] | TGI (SN12C renal) [µM] | TGI (MOLT-4 leukemia) [µM] | TGI (OVCAR-4 ovarian) [µM] | TGI (KM12 colon) [µM] | TGI (SF-295 CNS) [µM] | TGI (PC-3 prostate) [µM] | TGI (MDA-MB-231 breast) [µM] | TGI (HOP-92 NSCLC) [µM]
CCCCCCCCCCCCCC(=O)OCC1OC(OC)C(NC(=O)N(CCCl)N=O)C(O)C1O (configuration not stated) | 56.8 | 75.9 | > 100 | 76.3 | 29.4 | 50.7 | 64.4 | – | – | – | –
CC(C)(C)NCC(O)COc1cccc2[nH]c(C#N)cc12 (configuration not stated) | > 100 | > 100 | > 100 | > 100 | > 100 | > 100 | > 100 | > 100 | > 100 | > 100 | –
O=Cc1cc(O)c(O)c(O)c1-c1c(C=O)cc(O)c(O)c1O | > 100 | > 100 | > 100 | > 100 | > 100 | > 100 | > 100 | > 100 | – | – | –
C[C@H](NC(=O)OC1C2C=CC(O)C1CC2)c1ccccc1 (some centres not stated) | > 100 | > 100 | > 100 | > 100 | > 100 | > 100 | > 100 | > 100 | – | – | –
CC(=O)OC(C)(C)C1CCC(C)(C(O)COc2ccc(CCNC(=O)c3ccccc3)cc2)O1 (configuration not stated) | > 100 | > 100 | > 100 | > 100 | 42.5 | > 100 | > 100 | > 100 | – | – | > 100
CC1(C)COC(c2cccc(C3=NC(C)(C)CO3)c2)=N1 | > 100 | > 100 | > 100 | – | > 100 | > 100 | > 100 | – | > 100 | > 100 | > 100
Cc1cc2nc3c(C#N)c(-c4ccccc4)/c(=C\Nc4cccc(C(F)(F)F)c4)c(=O)n3c2cc1C | > 100 | 66.9 | – | > 100 | – | > 100 | > 100 | > 100 | > 100 | > 100 | –
COC(=O)CP1(=O)OC2C(C3CCC2(C)C3(C)C)N1c1cc(C(F)(F)F)cc(C(F)(F)F)c1 (configuration not stated) | 58.1 | 85.7 | > 100 | – | 59 | > 100 | 54.7 | 48.2 | 74.9 | 43.7 | –
NC12c3c4cccc3Oc3cccc(c31)Oc1cccc(c12)O4 | – | > 50 | > 50 | > 50 | > 50 | > 50 | > 50 | > 50 | > 50 | > 50 | > 50
CC(=O)OC1COC(N2C(=O)C(=O)c3cc(Br)c([N+](=O)[O-])cc32)C(OC(C)=O)C1OC(C)=O (configuration not stated) | > 100 | > 100 | > 100 | > 100 | 88.5 | > 100 | > 100 | > 100 | – | – | 93.3
CCOC(=O)[C@H]1Nc2ccc(O)cc2C2c3ccccc3CC21 (some centres not stated) | > 100 | > 100 | > 100 | > 100 | > 100 | > 100 | > 100 | – | – | – | –
CC1CCN(c2nnc(Cl)cc2C(=O)c2ccccc2)CC1 | – | > 100 | > 100 | > 100 | 55 | > 100 | 52.6 | 83.9 | > 100 | 96.2 | 55.5
COc1ccc2cc(C(=O)NCCc3ccccc3)ccc2c1OC | > 100 | 75.3 | > 100 | > 100 | > 100 | > 100 | – | > 100 | > 100 | 87.4 | > 100
OC(Cn1cncn1)(Cn1cncn1)c1ccc(Cl)cc1Cl | > 100 | > 100 | > 100 | > 100 | > 100 | > 100 | > 100 | > 100 | – | – | > 100
CC(C)CC(NC(=O)C(Cc1ccccc1)NC(=O)C(COCc1ccccc1)NC(=O)OC(C)(C)C)C(=O)OCc1ccccc1 (stereo not drawn) (Boc-Ser(Bn)-Phe-Leu-OBn; configuration not given here) | > 100 | > 100 | 31.8 | 63.9 | 33.4 | > 100 | – | 51.1 | 57.6 | 93 | –
Cn1cc(C(=O)C2CCCCC2)ccc1=O | > 100 | > 100 | > 100 | > 100 | > 100 | > 100 | > 100 | > 100 | – | – | > 100
CC(=O)NC1C(OCC(=O)NC(C)C(=O)NC(CCC(=O)NCCCCCNc2ccc([N+](=O)[O-])c3[nH]c4ccccc4c(=O)c23)C(N)=O)C(O)C(CO)OC1(C)OCc1ccccc1 (configuration not stated) | 26.9 | > 50 | > 50 | > 50 | > 50 | > 50 | > 50 | > 50 | > 50 | 31.4 | –
CCC1OC2C(CC=C(C)C)=C3OC(C)(O)C(C)(CC)C(O)C3=C3OC(=O)C=C1C32 (configuration not stated) | – | – | – | – | > 100 | > 100 | > 100 | > 100 | > 100 | 75.5 | 54.9
C[Si](C)(C)C#C[I+]c1ccccc1 | > 100 | > 100 | > 100 | 64.7 | > 100 | > 100 | > 100 | > 100 | – | – | > 100
CC(=O)c1nc2ccccc2n1CC(=O)c1ccc([N+](=O)[O-])cc1 | 33.2 | 17.6 | 14.5 | > 100 | 84.5 | > 100 | 47.3 | 36.1 | 44.4 | > 100 | –
C#CCNC(Cc1ccccc1)C(=O)O (configuration not stated) | > 100 | > 100 | > 100 | – | > 100 | > 100 | > 100 | > 100 | > 100 | > 100 | > 100
C=C1C(=O)OC2C(C)C3C=CC(=O)[C@@]3(C)C(OC(=O)/C(C)=C/C)C1[C@@H]2OC(C)=O (some centres not stated) | 0.539 | 2.86 | 2.05 | 1.24 | – | 2.53 | 3.68 | 2.81 | 1.87 | 0.678 | 1.56
